From patent publication US20030092684A1, “Compositions and methods for treating hemorrhagic virus infections and other disorders” (priority 1999, published 2003)
Values joined by “and” are separate entries in the source; they are usually repeats but may differ in a detail not shown here. Equal values may be shown once. Read-outs that look alike come from different tables or passages of the source.

Key:
[1] = test system: Marburg virus strain Popp; parameters: species or system guinea-pigs; conditions: guinea pig, in vivo
[2] = test system: Lassa virus strain Josiah; parameters: species or system BALB/c mice; conditions: mouse, in vivo
[3] = test system: Dengue virus type 2; assay: Dengue virus infection treated with tetracycline compounds (Example 4): mortality; format: in vivo, BALB/c mice; conditions: 20 mg/kg orally twice per day from day -3 until day 8
[4] = test system: TNF-α and IL-1β; assay: Serum TNF and IL-1 in Dengue infected mice (Example 4); format: in vivo, BALB/c mice; conditions: for IL-1 / TNF: 20 mg/kg orally twice per day from day -3 until day 8
[5] = test system: Dengue virus, type 2; parameters: species or system BALB/c mice; conditions: mouse, in vivo, po
[6] = test system: TNF-α and IL-1β; assay: Serum TNF-α and IL-1β in Dengue infected mice (Example 5); format: in vivo, BALB/c mice; conditions: 100 μg orally twice per day from day 3 until day 8
[7] = test system: IL-1RA and sTNFrl; assay: IL-1RA and sTNFrl in human donor serum after oral antibiotic stimulation; format: in vivo; conditions: after stimulation, 2 persons, on the 24th hour
[8] = test system: Mononuclear human cells; assay: In vitro activation of mononuclear human cells by antibiotics: IL-1RA and sTNFrI production; format: cell-based; conditions: 0.06 mg/ml, activation for 2 hours
[9] = test system: mice with the SEB-induced septic shock; parameters: species or system Balb/c mice; conditions: mouse, in vivo
[10] = 58 mg/kg i.m. during 17 day period without virus injection
[11] = 7 day period without viral infection

CN(C)C1C(O)=C(C(N)=O)C(=O)C2(O)C(O)=C3C(=O)c4c(O)cccc4C(C)(O)C3CC12 (stereo not drawn) [Tetracycline, 4-dimethylamino-1,4,4a,5,5a,6-11,12a-octahydro-3,6,10,12,12a-pentahydroxy-6-methyl-1,11-dioxo-2-naphthacenecarboxamide]
m.t.d. (mean time to death) [1]: 8.75 and 8.06 and 7.91 | survival [2]: 80% | death ([2]; 58 mg/kg): 4 | Survival/total amount ([3]; day 0): 20/20 | Survival/total amount ([3]; day 1): 20/20 | Survival/total amount ([3]; day 3): 20/20 | Survival/total amount ([3]; day 5): 16/20 | Survival/total amount ([3]; day 6): 11/20 | Survival/total amount ([3]; day 7): 8/20 | Survival/total amount ([3]; day 12): 8/20 | Survival/total amount ([3]; day -1): 20/20 | increase of the concentration of TNF ([4]; 20 mg/kg orally twice per day): 2 fold | level of the cytokines in the serum versus control A2 group ([4]; 20 mg/kg twice per day from day -3 until day 8): statistically lower | increase of the concentration of IL-1 ([4]; by day 5 of the disease, 20 mg/kg orally twice per day): 10 fold | IL-1 ([4]; day 0): 6.8 pg/mL | IL-1 ([4]; day 1): 10.8 pg/mL | IL-1 ([4]; day 3): 46.8 pg/mL | TNF ([4]; day 3): 14.0 pg/mL | IL-1 ([4]; day 5): 66.0 pg/mL | TNF ([4]; day 5): 28.8 pg/mL | IL-1 ([4]; day 6): 56.8 pg/mL | TNF ([4]; day 6): 38.4 pg/mL | IL-1 ([4]; day 7): 10.2 pg/mL | TNF ([4]; day 7): 33 pg/mL | IL-1 ([4]; day 12): 7.4 pg/mL | TNF ([4]; day 12): 19.6 pg/mL | IL-1 ([4]; day -1): 6.8 pg/mL | TNF ([4]; day -1): 18.4 pg/mL | Survived/died [5]: 9/11 | m.t.d. (average lifetime) [5]: 8.40 ± 0.73 | IL-1 ([6]; day 0): 6.0 pg/mL | TNF ([6]; day 0): 7.8 pg/mL | IL-1 ([6]; day 1): 12.0 pg/mL | TNF ([6]; day 1): 13.8 pg/mL | IL-1 ([6]; day 3): 36.0 pg/mL | TNF ([6]; day 3): 38.2 pg/mL | IL-1 ([6]; day 5): 48.6 pg/mL | TNF ([6]; day 5): 56.2 pg/mL | IL-1 ([6]; day 6): 62.4 pg/mL | TNF ([6]; day 6): 156.8 pg/mL | IL-1 ([6]; day 12): 15.6 pg/mL | TNF ([6]; day 12): 18.0 pg/mL | IL-1 ([6]; day 21): 5.8 pg/mL | TNF ([6]; day 21): 7.4 pg/mL | IL-1RA in the donor serum [7]: 130 ± 6.8 pg/mL | sTNFrl in the donor serum [7]: 580 ± 18.2 pg/mL | IL-1RA ([8]; 0 hours): 22 + 1.4 pg/ml | sTNFrI ([8]; 0 hours): 19 + 1.2 pg/ml | IL-1RA ([8]; 3 hours): 86 + 4.6 pg/ml | sTNFrI ([8]; 3 hours): 185 + 8.4 pg/ml | IL-1RA ([8]; 6 hours): 186 + 8.2 pg/ml | sTNFrI ([8]; 6 hours): 204 + 9.2 pg/ml | IL-1RA ([8]; 24 hours): 140 + 7.6 pg/ml | sTNFrI ([8]; 24 hours): 201 + 8.6 pg/ml | mice survived 96 hours postinduction [9]: About 20% | toxicity to control groups [10]: not toxic | survival ([10]; of 6 guinea pigs): 6 | toxicity to control groups [11]: not toxic | death ([11]; of 20 mice): 0 | survival ([11]; of 20 mice): 20
